Test results: publication PMC4542628, “Lys39-Lysophosphatidate Carbonyl Oxygen Interaction Locks LPA1 N-terminal Cap to the Orthosteric Site and partners Arg124 During Receptor Activation” (Scientific Reports, 2015)

Tests used:
LPA1 K7.36A mutant = molecular target: T1, LPA1 K7.36A mutant (Homo sapiens, UniProt Q92633, K294A); assay: Intracellular calcium mobilization in B103 cells expressing K7.36A LPA1 mutant; format: cell-based; details: at the highest concentration tested
T1 construct: expressed in transfected cells; host or cells: B103 rat neuroblastoma cells, electroporated with pCAGGS-HA-LPA1 mutant
Source text: (§1) PCXN2.1-LPA1, an expression vector for human LPA1, was kindly provided by Dr. T. Shimizu (NCGM, Tokyo) (40). The mutants of LPA1 (Lys39Ala, Arg115Ala, Arg124Ala, Asp191Ala and Lys294Ala) were generated by a two-step PCR. The cDNA of the 5′ portion of LPA1 was amplified by PCR using a forward primer containing XhoI site and reverse primers containing the sequence encoding the mutated amino acids. The 3′ portion was also amplified with forward primers containing the mutated sequence and a reverse primer containing NotI and BglII sites. All cDNAs of the LPA1 variants were amplified using a mixture of the two PCR products together with the XhoI and NotI-containing primers. The resulting 1.0 KB products were cloned into a pCRII-Topo vector for sequence analysis. The cDNA of LPA1 mutants were cut out from pCRII-Topo by XhoI and NotI, and ligated into the XhoI/NotI sites of pCAGGS-HA (41), to generate pCAGGS-HA-LPA1 mutants.
(§2) B103 rat neuroblastoma cells that lack LPA response were cultured in DMEM containing 10% fetal bovine serum at 37 °C in a 5% CO2 atmosphere. […] After 30 min, 20 μl of the LPA species at defined concentration was added followed by an immediate recording of the fluorescence using the Functional Drug Screening System/μCell (Hamamatsu Photonics K.K., Hamamatsu city, Japan). The fluorescence intensity was described as fura-2 ratio (tested value/basal value) or fold induction. […]

wildtype LPA1 = molecular target: T2, wildtype LPA1 (Homo sapiens, UniProt Q92633); assay: Intracellular calcium mobilization in B103 cells expressing wild-type LPA1; format: cell-based
T2 construct: expressed in transfected cells; host or cells: B103 rat neuroblastoma cells (lack LPA response), electroporated
Source text: as §1, §2

LPA1 = tested on: LPA1; set-up: method as in earlier work; details: acting on LPA1; ref 31 (Williams et al.); cited from earlier work

T2 sequence (Q92633 whole entry): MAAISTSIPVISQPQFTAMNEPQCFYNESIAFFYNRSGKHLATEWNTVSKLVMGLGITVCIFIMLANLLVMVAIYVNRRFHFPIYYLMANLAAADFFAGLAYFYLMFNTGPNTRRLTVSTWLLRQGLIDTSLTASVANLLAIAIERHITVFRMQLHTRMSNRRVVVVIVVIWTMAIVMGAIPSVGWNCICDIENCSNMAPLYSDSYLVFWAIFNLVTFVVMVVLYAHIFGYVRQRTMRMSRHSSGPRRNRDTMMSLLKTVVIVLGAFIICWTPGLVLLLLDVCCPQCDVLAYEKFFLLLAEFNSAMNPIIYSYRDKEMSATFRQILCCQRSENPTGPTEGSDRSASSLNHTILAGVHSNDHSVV
T1 sequence (Q92633 whole entry K294A): as the sequence (Q92633 whole entry) above, with K294A counted along it

Row | intracellular calcium mobilization, Emax levels of the wildtype (LPA1 K7.36A mutant) | potency compared with LPA (18:1), dose-response curve (wildtype LPA1) | Compound | EC50 (LPA1) [nM]
1 | ≈ 60% |  | CCCCC/C=C\C/C=C\C/C=C\C/C=C\CCCC(=O)OC[C@@H](O)COP(=O)(O)O.N [LPA 20:4, 1-arachidonoyl-2-hydroxy-sn-glycero-3-phosphate (ammonium salt)] | 
2 |  | right-shift in the dose-response curve | alkyl glycerol phosphate 18:1 [AGP (18:1)] | 1500
